Data from ChEMBL document CHEMBL1201862, “PubChem BioAssay data set” (2004).
One block for each molecule: values may come before it. The source made the active and inactive calls.

Experiments:
Cytochrome P450 3A4 [1] = biological target: T1, Cytochrome P450 3A4 (Homo sapiens, UniProt P08684);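 note: CYP3A4 tested as one member of a cytochrome P450 panel screen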
[2] = inhibitors of intracellular T. cruzi replication, confirmation, NIH3T3 host cells, beta-gal luminescence (AID 2044); assay type: functional, cell-based;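 note: intracellular parasites grown in NIH/3T3 mouse fibroblasts as host cells; luminescent beta-galactosidase reporter signal from transgenic T. cruzi replicating inside host cells; inhibitors lower the luminescence signal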
[3] = cytotoxicity toward NIH3T3 fibroblasts, dose response, counter-screen, cell-based, ATP luminescence, mouse fibroblasts (AID 2010); assay type: functional; settings: NIH3T3;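 note: cells exposed to compound for about 90 hours before reading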
[4] = biological target: Photoreceptor-specific nuclear receptor (Homo sapiens, UniProt Q9Y5X4); assay type: functional, cell-based;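 note: CHO-S cells with Gal4-NCOR and VP16-NR2E3 two-hybrid luciferase reporter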
[5] = biological target: T2, DNA repair and recombination protein RAD54-like (Homo sapiens, UniProt Q92698); assay: inhibitors of human RAD54 branch migration, confirmation, biochemical, fluorescence, cherry-picked samples, dose series (AID 651657); assay type: functional
T2 sequence (Q92698 whole entry): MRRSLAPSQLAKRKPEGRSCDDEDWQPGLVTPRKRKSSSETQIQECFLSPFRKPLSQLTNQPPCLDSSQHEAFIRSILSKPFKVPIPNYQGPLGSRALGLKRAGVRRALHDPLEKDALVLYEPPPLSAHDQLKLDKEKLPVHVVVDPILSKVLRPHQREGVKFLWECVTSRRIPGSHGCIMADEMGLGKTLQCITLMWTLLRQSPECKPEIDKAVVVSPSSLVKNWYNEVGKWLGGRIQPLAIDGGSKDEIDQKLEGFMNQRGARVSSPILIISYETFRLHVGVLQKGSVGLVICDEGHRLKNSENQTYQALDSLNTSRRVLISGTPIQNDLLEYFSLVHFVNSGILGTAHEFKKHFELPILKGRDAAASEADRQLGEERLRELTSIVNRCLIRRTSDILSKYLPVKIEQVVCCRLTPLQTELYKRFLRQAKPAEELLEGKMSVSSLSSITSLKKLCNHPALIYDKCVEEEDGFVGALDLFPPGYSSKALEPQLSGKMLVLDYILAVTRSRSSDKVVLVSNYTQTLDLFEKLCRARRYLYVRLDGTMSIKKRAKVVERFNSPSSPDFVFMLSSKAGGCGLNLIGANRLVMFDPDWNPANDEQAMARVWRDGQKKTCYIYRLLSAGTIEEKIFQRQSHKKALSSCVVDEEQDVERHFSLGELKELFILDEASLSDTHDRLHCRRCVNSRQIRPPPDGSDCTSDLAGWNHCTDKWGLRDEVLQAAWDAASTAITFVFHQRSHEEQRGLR

[6] = biological target: T3, DNA repair protein RAD52 homolog (Homo sapiens, UniProt P43351); assay type: functional, biochemical
T3 sequence (P43351 whole entry): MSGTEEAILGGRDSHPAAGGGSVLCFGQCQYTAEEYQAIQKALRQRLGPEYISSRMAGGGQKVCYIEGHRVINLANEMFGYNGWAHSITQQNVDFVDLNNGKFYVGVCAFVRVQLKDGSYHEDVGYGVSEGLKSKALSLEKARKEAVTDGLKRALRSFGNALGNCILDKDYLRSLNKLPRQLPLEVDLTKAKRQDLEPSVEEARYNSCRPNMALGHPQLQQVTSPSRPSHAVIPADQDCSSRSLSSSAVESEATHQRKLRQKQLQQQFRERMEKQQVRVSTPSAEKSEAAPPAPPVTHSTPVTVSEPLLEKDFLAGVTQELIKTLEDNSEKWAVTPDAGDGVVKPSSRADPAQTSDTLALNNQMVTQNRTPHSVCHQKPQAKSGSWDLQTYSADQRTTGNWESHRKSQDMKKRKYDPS

Cytochrome P450 2D6 = Cytochrome P450 2D6 (Homo sapiens, UniProt P10635);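 note: CYP2D6 member of a cytochrome P450 panel assay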
[7] = biological target: T4, Corticotropin-releasing factor receptor 2/Corticotropin-releasing factor-binding protein (Homo sapiens, UniProt P24387+Q13324); assay: Dose Response confirmation of uHTS hits for small molecule antagonists of the CRF-binding protein and CRF-R2 receptor complex.; assay type: functional; settings: read-out: IC50_Mean
T4 sequence (Q13324 whole entry): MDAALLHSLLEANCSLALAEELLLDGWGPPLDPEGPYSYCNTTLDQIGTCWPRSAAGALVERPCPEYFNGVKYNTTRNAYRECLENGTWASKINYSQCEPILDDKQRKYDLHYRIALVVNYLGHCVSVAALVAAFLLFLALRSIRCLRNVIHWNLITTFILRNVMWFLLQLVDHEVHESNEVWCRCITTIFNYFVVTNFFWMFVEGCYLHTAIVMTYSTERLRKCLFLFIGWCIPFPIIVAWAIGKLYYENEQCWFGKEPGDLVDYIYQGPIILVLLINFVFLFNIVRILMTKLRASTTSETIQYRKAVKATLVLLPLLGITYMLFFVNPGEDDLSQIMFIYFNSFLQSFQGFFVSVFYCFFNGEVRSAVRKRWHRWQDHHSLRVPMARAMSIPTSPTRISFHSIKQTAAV
T4 sequence (P24387 whole entry): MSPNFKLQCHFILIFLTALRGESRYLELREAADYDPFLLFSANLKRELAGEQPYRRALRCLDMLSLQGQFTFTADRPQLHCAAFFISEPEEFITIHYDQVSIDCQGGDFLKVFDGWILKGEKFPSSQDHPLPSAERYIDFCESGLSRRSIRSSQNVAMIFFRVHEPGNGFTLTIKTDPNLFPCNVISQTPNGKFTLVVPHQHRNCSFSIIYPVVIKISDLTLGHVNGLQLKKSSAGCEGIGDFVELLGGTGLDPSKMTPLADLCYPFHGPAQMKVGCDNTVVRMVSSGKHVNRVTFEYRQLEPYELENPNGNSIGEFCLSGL

[8] = biological target: T4, Corticotropin-releasing factor receptor 2/Corticotropin-releasing factor-binding protein; assay: activators of CRF receptor 2 with binding protein – uHTS hits, confirmation (AID 602473); assay type: functional; settings: read-out: EC50_Mean
[9] = CRF-BP/CRF-R2 complex antagonists, dose response, cell-based, uHTS hits, 384-well (AID 651639); assay type: functional, Homo sapiens; settings: read-out: IC50_Mean
Cytochrome P450 3A4 [10] = biological target: T1, Cytochrome P450 3A4; remark: listed apart in the source
Cytochrome P450 2C9 = Cytochrome P450 2C9 (Homo sapiens, UniProt P11712)
Cytochrome P450 2C19 = Cytochrome P450 2C19 (Homo sapiens, UniProt P33261); assay: Cytochrome panel assay with activity outcomes. Panel member name: p450-cyp2c19 Compounds with AC50 equal or less than 10 uM are considered active; assay type: functional; settings: read-out: AC50
Tumor necrosis factor = Tumor necrosis factor (Homo sapiens, UniProt P01375); assay: TNFa-triggered NF-kB activation inhibitors, SAR follow-up, cell-based, revised (AID 2337); assay type: functional
HEK293 = assay: cells; settings: Homo sapiens;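 note: cells exposed to compound for 14 hours overnight before viability readout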

Chain of Cytochrome P450 2D6 (P10635 whole entry): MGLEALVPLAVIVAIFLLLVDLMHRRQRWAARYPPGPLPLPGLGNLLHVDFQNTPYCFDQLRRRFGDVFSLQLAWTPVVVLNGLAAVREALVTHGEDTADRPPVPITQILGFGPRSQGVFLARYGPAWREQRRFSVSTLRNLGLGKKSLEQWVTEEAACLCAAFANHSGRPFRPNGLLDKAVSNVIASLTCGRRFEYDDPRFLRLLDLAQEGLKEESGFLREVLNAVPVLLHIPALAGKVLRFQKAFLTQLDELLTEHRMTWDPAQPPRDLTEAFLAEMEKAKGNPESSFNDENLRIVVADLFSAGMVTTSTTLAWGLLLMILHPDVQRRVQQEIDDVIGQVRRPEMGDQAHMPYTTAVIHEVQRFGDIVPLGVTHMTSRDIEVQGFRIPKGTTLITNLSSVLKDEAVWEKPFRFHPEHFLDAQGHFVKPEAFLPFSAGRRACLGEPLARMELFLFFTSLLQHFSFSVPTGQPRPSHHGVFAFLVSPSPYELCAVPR
T1 sequence (P08684 whole entry): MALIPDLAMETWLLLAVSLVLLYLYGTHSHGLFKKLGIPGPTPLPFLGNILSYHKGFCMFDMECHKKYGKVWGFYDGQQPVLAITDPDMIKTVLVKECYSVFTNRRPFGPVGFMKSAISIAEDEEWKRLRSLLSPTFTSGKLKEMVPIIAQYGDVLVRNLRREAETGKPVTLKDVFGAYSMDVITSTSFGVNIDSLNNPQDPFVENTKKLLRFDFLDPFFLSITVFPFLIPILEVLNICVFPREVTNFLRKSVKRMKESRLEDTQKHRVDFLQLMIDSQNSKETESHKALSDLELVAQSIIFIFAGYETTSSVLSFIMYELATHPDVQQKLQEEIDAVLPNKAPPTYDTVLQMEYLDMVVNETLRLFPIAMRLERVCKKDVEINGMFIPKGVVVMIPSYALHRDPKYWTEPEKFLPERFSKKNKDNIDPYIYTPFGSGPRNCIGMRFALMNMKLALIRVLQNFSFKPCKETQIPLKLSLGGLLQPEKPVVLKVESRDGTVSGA
Chain of Cytochrome P450 2C19 (P33261 whole entry): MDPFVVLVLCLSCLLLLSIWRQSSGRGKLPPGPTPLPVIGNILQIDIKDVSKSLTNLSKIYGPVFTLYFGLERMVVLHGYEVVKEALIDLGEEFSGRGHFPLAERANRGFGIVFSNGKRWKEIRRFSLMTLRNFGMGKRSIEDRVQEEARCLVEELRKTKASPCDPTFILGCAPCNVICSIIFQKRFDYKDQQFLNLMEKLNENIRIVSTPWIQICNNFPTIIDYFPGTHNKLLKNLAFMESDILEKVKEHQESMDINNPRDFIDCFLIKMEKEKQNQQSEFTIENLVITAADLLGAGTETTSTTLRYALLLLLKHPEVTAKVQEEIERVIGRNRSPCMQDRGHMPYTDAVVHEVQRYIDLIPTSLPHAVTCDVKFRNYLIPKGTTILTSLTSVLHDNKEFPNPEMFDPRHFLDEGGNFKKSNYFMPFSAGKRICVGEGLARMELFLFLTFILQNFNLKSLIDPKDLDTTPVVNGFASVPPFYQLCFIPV
Chain of Cytochrome P450 2C9 (P11712 whole entry): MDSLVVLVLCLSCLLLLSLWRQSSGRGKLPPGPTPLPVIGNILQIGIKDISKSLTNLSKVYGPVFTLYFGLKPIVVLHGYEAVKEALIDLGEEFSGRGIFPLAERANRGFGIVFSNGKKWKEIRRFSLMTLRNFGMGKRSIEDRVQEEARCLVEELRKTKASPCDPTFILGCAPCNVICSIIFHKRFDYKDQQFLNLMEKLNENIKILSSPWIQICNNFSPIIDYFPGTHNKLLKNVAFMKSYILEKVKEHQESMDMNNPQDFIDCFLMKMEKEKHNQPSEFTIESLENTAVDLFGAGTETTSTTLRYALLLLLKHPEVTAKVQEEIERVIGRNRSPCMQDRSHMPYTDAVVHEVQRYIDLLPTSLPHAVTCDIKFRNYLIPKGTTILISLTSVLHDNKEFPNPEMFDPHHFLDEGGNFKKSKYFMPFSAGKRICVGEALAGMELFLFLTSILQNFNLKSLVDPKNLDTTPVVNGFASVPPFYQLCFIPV
Chain of Photoreceptor-specific nuclear receptor (Q9Y5X4 whole entry, the tested form may be a part): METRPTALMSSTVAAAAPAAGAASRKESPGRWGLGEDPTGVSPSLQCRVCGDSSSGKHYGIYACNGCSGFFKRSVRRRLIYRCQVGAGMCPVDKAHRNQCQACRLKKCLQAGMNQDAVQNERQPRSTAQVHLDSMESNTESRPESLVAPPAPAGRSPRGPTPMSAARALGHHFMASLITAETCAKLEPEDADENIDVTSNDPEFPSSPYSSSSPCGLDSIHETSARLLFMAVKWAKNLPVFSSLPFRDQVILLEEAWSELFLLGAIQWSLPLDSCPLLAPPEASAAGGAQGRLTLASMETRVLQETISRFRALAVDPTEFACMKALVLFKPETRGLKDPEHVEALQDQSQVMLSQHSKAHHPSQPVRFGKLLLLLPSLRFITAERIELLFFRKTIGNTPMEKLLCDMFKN
Chain of Tumor necrosis factor (P01375 whole entry): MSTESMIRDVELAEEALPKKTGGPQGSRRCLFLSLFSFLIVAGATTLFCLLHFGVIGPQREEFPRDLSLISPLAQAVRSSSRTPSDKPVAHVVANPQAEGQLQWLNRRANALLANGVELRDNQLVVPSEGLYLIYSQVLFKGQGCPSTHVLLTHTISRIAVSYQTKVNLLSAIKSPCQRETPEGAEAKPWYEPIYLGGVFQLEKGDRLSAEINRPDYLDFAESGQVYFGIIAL

Structure (SMILES): CC(C)COc1ccc(C(=O)Nc2scc(-c3ccc(Cl)cc3Cl)c2C(N)=O)cc1
AC50 (Cytochrome P450 3A4 [1]): inconclusive | EC50 [2]: 1.76 µM (active) | EC50 [3]: > 60 µM (not active)

Structure (SMILES): CCOC(=O)c1cnc2c(C)cc(C)cc2c1NCCCN1CCOCC1
AC50 [5]: 5.48 µM (active) | AC50 [6]: 11.4 µM (active)

Structure (SMILES): O=C(O)[C@H]1CCN1
AC50 (Cytochrome P450 3A4 [1]): inconclusive | AC50 (Cytochrome P450 2C9): inconclusive

Structure (SMILES): CN(C)CCNc1nc2c(c(=O)n(C)c(=O)n2C)n1C
AC50 (Cytochrome P450 2D6): inconclusive

Structure (SMILES): N#Cc1cccc(NC(=O)N2CCC3(CC2)CCN(C(=O)c2ccco2)CC3)c1
AC50 (Cytochrome P450 3A4 [1]): inconclusive | AC50 (Cytochrome P450 2C19): 20 µM (inconclusive)

Structure (SMILES): CCC(=O)N1CCc2cc(S(=O)(=O)N3CCN(c4ccc([N+](=O)[O-])cc4)CC3)ccc21
IC50 (Tumor necrosis factor): > 20 µM (inactive) | IC50 (HEK293): > 20 µM (inactive)

Results, then the molecule that gave them:

IC50 [4]: 3.8 µM (active)
Structure (SMILES): O=C(C1CCC(CNS(=O)(=O)c2cccc3nsnc23)CC1)N1CC=C(c2ccccc2)CC1 (centres undefined)

AC50 (Cytochrome P450 2D6): inconclusive
Structure (SMILES): CNC(=S)NNC(=O)COc1ccccc1C

IC50 [7]: 23.2 µM (active) | EC50 [8]: > 53 µM (inactive) | IC50 [9]: 13.8 µM (active)
Structure (SMILES): Cc1ccccc1NC(=O)Cc1nc(COC(=O)c2cc([N+](=O)[O-])ccc2NCCO)cs1

AC50 (Cytochrome P450 2D6): inconclusive | AC50 (Cytochrome P450 3A4 [10]): 3.98 µM (inconclusive)
Structure (SMILES): CCN1C(=O)[C@H]2[C@H]3[C@H](O)[C@H](O)C/C(=N/OC[C@@H](C)[C@H](OCc4ccccc4)C(C)C)[C@@H]3CC[C@@H]2C1=O
